Test results from patent US20050267128A1, “Compounds, compositions and methods of modulating the mitochondrial apoptosis-induced channel (MAC)” (priority 2004, published 2005).
“Also recorded” adds a separate entry of the source.

Tests used:
[1] = test system: mitochondrial apoptosis-induced channel (MAC); experiment: Patch clamp of MAC in proteoliposomes containing mitochondrial outer membranes of apoptotic FL5.12 cells; assay type: biochemical, mouse; conditions: for voltage dependence of MAC blockade: current voltage curves between +40 mV and −40 mV; for Hill coefficient of MAC blockade / IC50 / IC50 for MAC, stated in words: patch clamp, proteoliposomes; for IC50: 150 mM KCl 5 mM HEPES pH 7.4, read-out: IC50 for blockade of MAC (inhibition of conductance); for reversibility of MAC blockade on removal by perfusion of the bath: wash out with 150 mM KCl 5 mM HEPES
Description: Hematopoietic FL5.12 cells are a mouse leukemia cell line that enters apoptosis after withdrawal of the growth factor interleukin-3 (IL-3) (Gross, A., Jockel, J., Wei, M. C. and Korsmeyer, S. J. (1998). Parental FL5.12 cells were cultured as previously described (Gross, A., Jockel, J., Wei, M. C. and Korsmeyer, S. J. (1998) EMBO J. 17, 3878-85) in Iscove's Modified Eagle Media (IMEM), 10% Fetal Bovine Serum, 10% WEHI-3B supplement (filtered supernatant of WEHI-3B cells secreting IL-3). Cultures were kept below 1.5 million cells/ml. Cells were washed three times in media without IL-3 (WEHI supplement) to induce apoptosis twelve hours prior to the isolation of mitochondria (Zamzami, N., Susin, S. A., Marchetti, P., Hirsch, T., Gomez-Monterrey, I., Castedo, M. and Kroemer, G. (1996).
Mitochondria were isolated from 2-15 g of FL5.12 cells as previously described for outer membrane preparations (Guo, L., Pietkiewicz, D., Pavlov, E. V., Kasianowicz, J. J., Korsmeyer, S. J., Antonsson, B. and Kinnally, K. W. (2004) American Journal of Physiology, Cell Biology. 286, C1109-17; Pavlov, E. V., Priault, M., Pietkiewicz, D., Cheng, E.H.-Y., Antonsson, B., Manon, S., Korsmeyer, S. J., Mannella, C. A. and Kinnally, K. W. (2001) J. Cell Biology 155, 725-732). Outer membranes were stripped from the inner membranes by French pressing isolated mitochondria using modifications of the method of Decker and Greenawalt (Decker, G. L. and Greenawalt, J. W. (1977) J. Ultrastr. Res. 59, 44-56) as described in (Pavlov, E. V., Priault, M., Pietkiewicz, D., Cheng, E.H.-Y., Antonsson, B., Manon, S., Korsmeyer, S. J., Mannella, C. A. and Kinnally, K. W. (2001) J. Cell Biology 155, 725-732). French pressing was done at 2000 PSI in 460 mM Mannitol 140 mM Sucrose 2 mM EDTA 10 mM HEPES pH 7.4. The pressed suspension was diluted 1:1 with 230 mM Mannitol 70 mM sucrose 1 mM EDTA 5 mM HEPES pH 7.4 and centrifuged at 10,000 rpm (12,000 g) for 10 minutes. Outer membranes were separated from inner membranes as described by Mannella (Mannella, C. A. (1982) J. Cell Biol. 94, 680-687).

neurons = conditions: cited from earlier work
[2] = test system: MAC from apoptotic HeLa cells; experiment: Blockade of MAC in partially purified fractions from apoptotic HeLa cells treated with staurosporine; assay type: biochemical; conditions: unpublished results
[3] = test system: permeability transition pore (PTP); conditions: mitochondria; cited from earlier work

Structure (SMILES) | current flow through MAC upon perfusion of the bath ([1]; 50 μM, +20 mV) | voltage dependence of MAC blockade [1] | Hill coefficient of MAC blockade [1] | IC50 [1] [µM] | reversibility of MAC blockade on removal by perfusion of the bath [1] | concentration that blocks mitochondrial depolarization induced by glutamate (neurons) [µM] | blockade of MAC compared with FL5.12 preparation [2] | concentration that blocks the PTP [3] [µM] | IC50 for MAC, stated in words [1] | effect on MAC activity ([1]; 300 μM) | effect on MAC activity ([1]; no concentration stated (FIG. 3B))
CCCCOc1cc(C(=O)NCCN(CC)CC)c2ccccc2n1 [dibucaine] | rapidly reduced | not voltage dependent | 1.3±0.1 | 39 | reversible | 50 to 100 | similar | 50 to 100 |  |  | 
CN1CCN(CCCN2c3ccccc3Sc3ccc(C(F)(F)F)cc32)CC1 [trifluoperazine] |  | not voltage dependent | 1.4±0.2 | 0.9 | not reversible | 10 to 20 |  | 10 to 20 | high nanomolar range |  | 
CC(C)NCC(O)COc1cccc2ccccc12 (stereo not drawn) [propranolol] |  | not voltage dependent | 2.1±0.2 |  | not reversible |  |  |  |  |  | 
CCN(CC)CC(=O)Nc1c(C)cccc1C [lidocaine] |  |  |  |  |  |  |  |  | mM to M | little effect | limited effects; also recorded: no effect
